The values that follow come from paper PMC9329436, “Optimization of the 4-anilinoquin(az)oline scaffold as epidermal growth factor receptor (EGFR) inhibitors for chordoma utilizing a toxicology profiling assay platform” (Scientific Reports, 2022).

What all share (type): biochemical
Experiment [1] deals with 320 wild-type protein kinases (Homo sapiens, UniProt Q6IQ55). The conditions noted are these: kinase TTBK2, singlicate. The text has this: (§1) Table S4. Profiling of two compounds at two concentrations against 320 wild-type protein kinases; singlicate measurement; Residual activities (% of control).
Sequence of 320 wild-type protein kinases (Homo sapiens, UniProt Q6IQ55) (Q6IQ55 whole entry): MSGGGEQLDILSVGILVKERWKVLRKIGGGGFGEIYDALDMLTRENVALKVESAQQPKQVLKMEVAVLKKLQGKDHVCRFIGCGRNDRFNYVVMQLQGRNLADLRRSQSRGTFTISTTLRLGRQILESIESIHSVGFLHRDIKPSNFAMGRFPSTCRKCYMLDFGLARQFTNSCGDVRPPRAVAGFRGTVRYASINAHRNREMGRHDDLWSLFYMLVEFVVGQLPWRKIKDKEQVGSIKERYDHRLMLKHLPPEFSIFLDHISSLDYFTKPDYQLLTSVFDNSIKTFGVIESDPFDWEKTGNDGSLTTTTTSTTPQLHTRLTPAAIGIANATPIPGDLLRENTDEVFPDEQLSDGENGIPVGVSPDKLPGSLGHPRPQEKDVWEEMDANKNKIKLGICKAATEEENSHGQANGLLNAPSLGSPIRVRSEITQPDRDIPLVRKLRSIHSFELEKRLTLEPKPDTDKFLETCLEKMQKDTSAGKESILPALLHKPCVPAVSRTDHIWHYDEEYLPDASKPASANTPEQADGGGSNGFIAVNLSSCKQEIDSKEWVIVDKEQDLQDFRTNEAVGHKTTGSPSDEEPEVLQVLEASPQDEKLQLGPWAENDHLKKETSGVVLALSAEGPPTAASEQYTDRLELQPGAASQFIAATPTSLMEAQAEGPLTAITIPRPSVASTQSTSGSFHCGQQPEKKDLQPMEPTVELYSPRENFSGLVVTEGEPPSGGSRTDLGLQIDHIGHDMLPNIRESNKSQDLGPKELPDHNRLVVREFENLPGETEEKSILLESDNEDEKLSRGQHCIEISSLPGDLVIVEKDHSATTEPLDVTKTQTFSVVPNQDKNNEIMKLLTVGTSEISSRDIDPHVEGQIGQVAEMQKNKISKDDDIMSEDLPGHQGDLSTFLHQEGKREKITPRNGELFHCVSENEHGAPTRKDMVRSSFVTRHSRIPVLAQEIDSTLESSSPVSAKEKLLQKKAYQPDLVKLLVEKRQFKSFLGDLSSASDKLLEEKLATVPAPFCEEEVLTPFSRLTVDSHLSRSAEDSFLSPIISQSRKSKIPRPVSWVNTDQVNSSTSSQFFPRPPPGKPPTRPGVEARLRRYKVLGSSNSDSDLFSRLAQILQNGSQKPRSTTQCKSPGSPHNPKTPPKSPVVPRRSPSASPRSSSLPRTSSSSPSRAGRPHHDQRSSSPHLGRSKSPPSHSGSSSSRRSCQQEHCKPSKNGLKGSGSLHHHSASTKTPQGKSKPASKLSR
The target of experiment [2] is T1, 320 wild-type protein kinases (Homo sapiens, UniProt Q9H2K8).
T1 sequence (Q9H2K8 1-898): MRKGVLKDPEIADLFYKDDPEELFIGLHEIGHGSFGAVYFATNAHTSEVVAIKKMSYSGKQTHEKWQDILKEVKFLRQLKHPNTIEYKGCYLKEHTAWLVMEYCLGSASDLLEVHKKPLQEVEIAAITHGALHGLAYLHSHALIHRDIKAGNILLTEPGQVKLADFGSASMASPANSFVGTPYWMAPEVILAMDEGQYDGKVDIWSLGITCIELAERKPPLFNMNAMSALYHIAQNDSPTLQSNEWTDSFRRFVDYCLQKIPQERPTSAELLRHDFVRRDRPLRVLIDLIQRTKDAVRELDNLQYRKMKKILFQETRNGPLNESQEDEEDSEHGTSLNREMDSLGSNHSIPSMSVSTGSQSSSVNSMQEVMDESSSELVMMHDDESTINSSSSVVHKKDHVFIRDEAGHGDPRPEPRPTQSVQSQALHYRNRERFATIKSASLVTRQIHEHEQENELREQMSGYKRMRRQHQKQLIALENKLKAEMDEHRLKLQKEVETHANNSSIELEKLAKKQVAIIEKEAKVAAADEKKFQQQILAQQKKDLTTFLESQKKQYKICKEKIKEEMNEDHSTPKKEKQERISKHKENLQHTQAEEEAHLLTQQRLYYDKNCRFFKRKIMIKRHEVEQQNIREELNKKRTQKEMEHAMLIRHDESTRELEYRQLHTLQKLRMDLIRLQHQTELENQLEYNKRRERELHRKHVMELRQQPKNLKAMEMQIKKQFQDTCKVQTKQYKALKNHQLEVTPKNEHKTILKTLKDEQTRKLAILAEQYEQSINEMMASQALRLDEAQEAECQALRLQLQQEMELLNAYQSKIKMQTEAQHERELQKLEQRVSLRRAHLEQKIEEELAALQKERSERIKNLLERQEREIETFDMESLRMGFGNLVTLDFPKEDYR
The conditions noted are these: kinase TAOK3, singlicate.
Description: as §1

For experiment [3], the target named is T2, 320 wild-type protein kinases (Homo sapiens, UniProt P51817).
T2 sequence (P51817 1-358): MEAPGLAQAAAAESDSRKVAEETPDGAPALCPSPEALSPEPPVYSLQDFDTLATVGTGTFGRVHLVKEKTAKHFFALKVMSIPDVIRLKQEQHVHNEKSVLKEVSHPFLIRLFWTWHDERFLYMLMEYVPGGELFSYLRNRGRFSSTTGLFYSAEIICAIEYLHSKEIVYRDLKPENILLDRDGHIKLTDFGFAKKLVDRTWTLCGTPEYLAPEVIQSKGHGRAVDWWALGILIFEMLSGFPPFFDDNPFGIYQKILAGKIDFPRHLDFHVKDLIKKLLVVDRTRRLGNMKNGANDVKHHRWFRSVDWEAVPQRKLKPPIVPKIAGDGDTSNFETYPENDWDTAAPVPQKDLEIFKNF
The conditions noted are these: kinase PRKX, singlicate.
Description: as §1

Experiment [4] has as its target 320 wild-type protein kinases (Homo sapiens, UniProt Q15375). To be noted: singlicate.
Description: as §1

For experiment [5], the target named is 320 wild-type protein kinases (Homo sapiens, UniProt P08631). The conditions noted are these: HCK, singlicate.
Sequence of 320 wild-type protein kinases (Homo sapiens, UniProt P08631) (P08631 whole entry): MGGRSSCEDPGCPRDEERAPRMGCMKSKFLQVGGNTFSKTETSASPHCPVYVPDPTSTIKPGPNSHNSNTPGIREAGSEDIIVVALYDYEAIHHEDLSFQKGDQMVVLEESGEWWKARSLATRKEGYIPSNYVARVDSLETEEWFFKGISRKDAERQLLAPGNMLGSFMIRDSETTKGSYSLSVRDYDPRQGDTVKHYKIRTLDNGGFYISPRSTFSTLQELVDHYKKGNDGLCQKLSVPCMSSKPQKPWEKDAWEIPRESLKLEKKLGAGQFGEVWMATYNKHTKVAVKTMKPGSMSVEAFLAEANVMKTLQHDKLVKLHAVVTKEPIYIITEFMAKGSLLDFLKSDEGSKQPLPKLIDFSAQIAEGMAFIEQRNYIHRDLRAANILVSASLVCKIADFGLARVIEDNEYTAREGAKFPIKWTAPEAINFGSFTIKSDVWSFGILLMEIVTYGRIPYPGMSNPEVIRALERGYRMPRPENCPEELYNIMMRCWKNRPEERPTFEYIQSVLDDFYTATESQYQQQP
Description: as §1

The target of experiment [6] is T3, 320 wild-type protein kinases (Homo sapiens, UniProt P36888).
T3 sequence (P36888 27-993): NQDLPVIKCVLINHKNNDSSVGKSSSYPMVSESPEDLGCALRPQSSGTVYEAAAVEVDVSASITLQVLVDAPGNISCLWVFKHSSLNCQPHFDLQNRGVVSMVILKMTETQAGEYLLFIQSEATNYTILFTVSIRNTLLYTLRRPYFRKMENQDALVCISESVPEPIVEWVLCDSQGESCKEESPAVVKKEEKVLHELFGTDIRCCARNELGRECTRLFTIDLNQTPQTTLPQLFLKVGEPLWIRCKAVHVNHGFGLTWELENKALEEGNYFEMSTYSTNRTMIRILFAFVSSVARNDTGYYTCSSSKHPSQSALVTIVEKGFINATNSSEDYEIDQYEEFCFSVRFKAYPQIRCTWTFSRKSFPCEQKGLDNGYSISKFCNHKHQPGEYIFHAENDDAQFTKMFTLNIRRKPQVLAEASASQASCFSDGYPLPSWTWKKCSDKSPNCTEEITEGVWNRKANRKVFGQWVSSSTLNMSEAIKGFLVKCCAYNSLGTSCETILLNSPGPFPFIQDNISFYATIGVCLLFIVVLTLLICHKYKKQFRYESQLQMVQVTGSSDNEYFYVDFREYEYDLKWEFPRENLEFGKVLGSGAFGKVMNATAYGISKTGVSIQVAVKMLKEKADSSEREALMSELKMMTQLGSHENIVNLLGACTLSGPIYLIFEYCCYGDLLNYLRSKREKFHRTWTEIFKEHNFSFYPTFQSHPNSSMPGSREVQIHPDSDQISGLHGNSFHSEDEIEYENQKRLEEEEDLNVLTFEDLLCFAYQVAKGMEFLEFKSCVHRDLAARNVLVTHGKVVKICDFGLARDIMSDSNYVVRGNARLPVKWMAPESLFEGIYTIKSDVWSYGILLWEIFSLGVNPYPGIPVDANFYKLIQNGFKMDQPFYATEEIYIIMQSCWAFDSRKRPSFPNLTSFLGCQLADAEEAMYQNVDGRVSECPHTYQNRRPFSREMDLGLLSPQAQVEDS
To be noted: singlicate.
Description: as §1

Experiment [7] addresses 320 wild-type protein kinases (Homo sapiens, UniProt O75116). To be noted: kinase ROCK2, singlicate.
Description: as §1

In experiment [8] the target is 320 wild-type protein kinases (Homo sapiens, UniProt Q13177). The conditions noted are these: singlicate.
Sequence of 320 wild-type protein kinases (Homo sapiens, UniProt Q13177) (Q13177 whole entry): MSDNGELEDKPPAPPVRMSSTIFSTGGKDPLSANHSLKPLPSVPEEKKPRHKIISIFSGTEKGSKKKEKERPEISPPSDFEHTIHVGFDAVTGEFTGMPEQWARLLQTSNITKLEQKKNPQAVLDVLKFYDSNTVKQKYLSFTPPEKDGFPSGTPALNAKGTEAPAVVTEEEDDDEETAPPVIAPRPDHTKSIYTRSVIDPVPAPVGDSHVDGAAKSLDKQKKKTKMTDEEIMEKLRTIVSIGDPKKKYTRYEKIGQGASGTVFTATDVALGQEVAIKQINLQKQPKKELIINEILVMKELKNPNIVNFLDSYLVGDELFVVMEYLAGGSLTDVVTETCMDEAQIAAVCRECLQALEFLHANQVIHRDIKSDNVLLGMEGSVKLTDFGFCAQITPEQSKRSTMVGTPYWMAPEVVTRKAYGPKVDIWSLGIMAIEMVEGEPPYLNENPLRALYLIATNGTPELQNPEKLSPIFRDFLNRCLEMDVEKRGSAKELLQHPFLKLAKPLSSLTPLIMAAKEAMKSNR
Description: as §1

Experiment [9] concerns the target 320 wild-type protein kinases (Homo sapiens, UniProt Q96RG2). The conditions noted are these: PASK, singlicate.
Description: as §1

The structures appear in SMILES notation. Like-named read-outs stand apart in the source and are kept apart here.

Sequence of 320 wild-type protein kinases (Homo sapiens, UniProt Q96RG2) (Q96RG2 whole entry): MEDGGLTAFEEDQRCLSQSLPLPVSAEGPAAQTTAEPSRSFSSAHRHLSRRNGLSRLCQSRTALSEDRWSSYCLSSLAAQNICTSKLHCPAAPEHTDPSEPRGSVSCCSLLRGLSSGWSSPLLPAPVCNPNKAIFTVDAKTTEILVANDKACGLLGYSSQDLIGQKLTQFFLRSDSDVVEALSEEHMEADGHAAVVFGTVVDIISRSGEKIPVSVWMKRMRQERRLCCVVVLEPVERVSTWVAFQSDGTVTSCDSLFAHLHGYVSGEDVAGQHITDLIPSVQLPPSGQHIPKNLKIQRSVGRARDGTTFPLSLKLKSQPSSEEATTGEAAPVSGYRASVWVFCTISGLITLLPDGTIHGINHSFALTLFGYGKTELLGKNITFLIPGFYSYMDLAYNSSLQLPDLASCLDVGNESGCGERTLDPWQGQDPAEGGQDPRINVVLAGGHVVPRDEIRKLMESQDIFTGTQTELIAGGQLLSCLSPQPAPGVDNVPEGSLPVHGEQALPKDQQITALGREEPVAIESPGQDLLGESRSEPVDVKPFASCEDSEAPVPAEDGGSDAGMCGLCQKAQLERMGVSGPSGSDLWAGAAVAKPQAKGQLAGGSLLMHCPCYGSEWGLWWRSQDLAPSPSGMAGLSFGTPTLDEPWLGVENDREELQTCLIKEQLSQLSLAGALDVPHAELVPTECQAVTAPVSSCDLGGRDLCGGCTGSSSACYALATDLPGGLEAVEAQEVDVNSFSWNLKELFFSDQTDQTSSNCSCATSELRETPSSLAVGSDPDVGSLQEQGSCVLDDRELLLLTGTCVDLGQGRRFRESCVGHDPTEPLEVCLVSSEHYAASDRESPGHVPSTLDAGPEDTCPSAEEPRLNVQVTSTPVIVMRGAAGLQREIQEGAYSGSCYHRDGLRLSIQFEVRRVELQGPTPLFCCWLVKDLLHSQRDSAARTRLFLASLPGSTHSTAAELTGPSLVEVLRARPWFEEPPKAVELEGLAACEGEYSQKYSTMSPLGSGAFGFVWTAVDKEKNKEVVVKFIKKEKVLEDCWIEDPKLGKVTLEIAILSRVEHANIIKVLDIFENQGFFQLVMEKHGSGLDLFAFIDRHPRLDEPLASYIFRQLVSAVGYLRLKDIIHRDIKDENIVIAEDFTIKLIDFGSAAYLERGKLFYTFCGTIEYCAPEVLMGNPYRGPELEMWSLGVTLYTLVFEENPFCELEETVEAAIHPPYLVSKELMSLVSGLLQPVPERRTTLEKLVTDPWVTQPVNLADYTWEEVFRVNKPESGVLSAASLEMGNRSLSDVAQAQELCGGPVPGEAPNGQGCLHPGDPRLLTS
Sequence of 320 wild-type protein kinases (Homo sapiens, UniProt O75116) (O75116 whole entry): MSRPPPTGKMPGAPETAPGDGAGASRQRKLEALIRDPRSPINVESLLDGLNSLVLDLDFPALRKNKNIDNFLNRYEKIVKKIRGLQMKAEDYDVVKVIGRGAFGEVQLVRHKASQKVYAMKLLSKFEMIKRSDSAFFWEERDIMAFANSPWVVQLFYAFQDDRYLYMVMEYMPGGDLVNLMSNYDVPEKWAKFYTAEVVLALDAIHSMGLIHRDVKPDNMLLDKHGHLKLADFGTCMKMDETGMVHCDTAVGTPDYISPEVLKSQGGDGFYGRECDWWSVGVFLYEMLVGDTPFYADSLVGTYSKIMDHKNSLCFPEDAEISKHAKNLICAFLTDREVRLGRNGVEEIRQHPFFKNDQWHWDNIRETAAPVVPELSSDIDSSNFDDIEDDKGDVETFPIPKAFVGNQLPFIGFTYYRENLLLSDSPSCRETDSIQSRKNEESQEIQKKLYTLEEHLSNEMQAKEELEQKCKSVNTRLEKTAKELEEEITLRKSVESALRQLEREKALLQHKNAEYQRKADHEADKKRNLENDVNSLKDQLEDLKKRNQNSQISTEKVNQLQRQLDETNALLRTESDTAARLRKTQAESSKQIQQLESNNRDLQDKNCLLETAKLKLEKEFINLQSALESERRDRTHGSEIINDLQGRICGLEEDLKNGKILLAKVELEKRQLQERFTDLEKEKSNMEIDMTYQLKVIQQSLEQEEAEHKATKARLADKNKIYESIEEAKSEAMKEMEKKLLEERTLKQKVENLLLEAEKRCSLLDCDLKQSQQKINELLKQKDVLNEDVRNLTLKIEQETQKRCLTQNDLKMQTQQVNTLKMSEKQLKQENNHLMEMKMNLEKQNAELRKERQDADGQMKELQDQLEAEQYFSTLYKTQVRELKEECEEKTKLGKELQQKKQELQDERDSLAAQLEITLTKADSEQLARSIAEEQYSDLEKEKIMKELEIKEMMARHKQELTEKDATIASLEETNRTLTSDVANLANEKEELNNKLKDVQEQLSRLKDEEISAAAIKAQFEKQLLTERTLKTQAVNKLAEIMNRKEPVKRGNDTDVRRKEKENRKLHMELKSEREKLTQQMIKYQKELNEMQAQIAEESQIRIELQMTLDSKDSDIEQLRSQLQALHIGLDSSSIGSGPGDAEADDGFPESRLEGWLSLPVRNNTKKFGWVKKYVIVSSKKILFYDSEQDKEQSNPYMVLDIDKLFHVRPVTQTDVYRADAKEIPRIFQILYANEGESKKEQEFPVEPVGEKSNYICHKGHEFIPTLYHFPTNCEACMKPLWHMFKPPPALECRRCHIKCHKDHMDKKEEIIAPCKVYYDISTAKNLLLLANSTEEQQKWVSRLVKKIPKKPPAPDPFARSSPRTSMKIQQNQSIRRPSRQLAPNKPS

Take `C#Cc1cc(Nc2ncnc3cc(I)ccc23)ccc1Cl` [Compound 41]: the “Residual activity, TTBK2” value in experiment [1] (assay conc. 1.0E-06 M) was 101 % of control; in [1] (assay conc. 1.0E-07 M), 102 % of control. Further, the results for the “Residual activity, TAOK3” value in experiment [2] (assay conc. 1.0E-06 M) and in experiment [2] (assay conc. 1.0E-07 M) were 93 % of control and 87 % of control, respectively. The “Residual activity, PRKX” value is recorded as 123 % of control in experiment [3] (assay conc. 1.0E-06 M) and 138 % of control in [3] (assay conc. 1.0E-07 M). Also, the Residual activity is 94 % of control in [4] (EPHA7, 1.0E-06 M); 85 % of control in [4] (EPHA7, 1.0E-07 M); 90 % of control in experiment [5] (1.0E-06 M); 110 % of control in experiment [5] (1.0E-07 M); 94 % of control in [6] (FLT3, 1.0E-06 M); 95 % of control in experiment [6] (FLT3, 1.0E-07 M). For the same compound, the Residual activity in experiment [8] (PAK2, 1.0E-06 M) is 102 % of control; in [8] (PAK2, 1.0E-07 M), 108 % of control; in [9] (1.0E-06 M) it was 101 % of control; in experiment [9] (1.0E-07 M), 102 % of control. Besides, the “Residual activity, ROCK2” value in experiment [7] (assay conc. 1.0E-06 M) was 88 % of control; in [7] (assay conc. 1.0E-07 M), 100 % of control.

Take `C#Cc1cc(Nc2ncnc3cc(OC)c(OC)cc23)ccc1Cl` [Compound 45]: the “Residual activity, TTBK2” value in experiment [1] (assay conc. 1.0E-06 M) was 95 % of control; in experiment [1] (assay conc. 1.0E-07 M), 96 % of control. Also, the “Residual activity, TAOK3” value is on record as 106 % of control in experiment [2] (assay conc. 1.0E-06 M) and 92 % of control in experiment [2] (assay conc. 1.0E-07 M). The “Residual activity, PRKX” value in [3] (assay conc. 1.0E-06 M) is given as 118 % of control; in [3] (assay conc. 1.0E-07 M) it was 117 % of control. Also, the Residual activity in experiment [4] (EPHA7, 1.0E-06 M) is 58 % of control; in experiment [4] (EPHA7, 1.0E-07 M), 84 % of control; in [5] (1.0E-06 M), 72 % of control; in experiment [5] (1.0E-07 M), 102 % of control; in experiment [6] (FLT3, 1.0E-06 M) it was 56 % of control; in [6] (FLT3, 1.0E-07 M) it was 88 % of control. The Residual activity is 104 % of control in [8] (PAK2, 1.0E-06 M); 101 % of control in [8] (PAK2, 1.0E-07 M); 93 % of control in experiment [9] (1.0E-06 M); 98 % of control in [9] (1.0E-07 M). In addition, the entries for the “Residual activity, ROCK2” value in [7] (assay conc. 1.0E-06 M) and in [7] (assay conc. 1.0E-07 M) were 84 % of control and 90 % of control, respectively.
